Measured values as given in patent US20060040871A1, “Bacterial transforming agent” (priority 2003, published 2006).
Where two headings read alike, the source gives them in different places.

Tests used:
[1] = test system: vancomycin- and gentamicin-resistant Enterococcus faecium; assay: microbe, parasite or virus in culture; assay type: cell-based
Description: The agents of the present invention are not limited to the reversal of resistance in Staphylococcus. The test strains in Table 5 are patient-isolates of vancomycin- and gentamicin-resistant Enterococcus faecium. At the time of isolation, they were commonly resistant to all clinically useable antimicrobial agents.

MRSA [2] = assay: Screening on Isosensitest agar with incorporated BTA and 10 μg methicillin discs; assay type: cell-based, Staphylococcus aureus; settings: BTA 0.01-1.0% in Isosensitest agar; 10 μg methicillin discs; reference MRSA (type strain), OMRSA, EMRSA-1, EMRSA-16
Protocol: To find substances related to GBE that might have increased potency, various substances, including those with additional glycine moieties and benzylates, have been screened. Screening was carried out using Isosensitest agar (Oxoid, UK) into which various levels of potential BTAs were incorporated at levels between 0.01 and 1.0%. The agar with incorporated BTA was then used in the manner of a standard antibiotic sensitivity test using 10 μg methicillin discs. The test organism was inoculated onto the agar surface at a concentration suitable to achieve confluent growth after 18 hours incubation at 30° C. After incubation, zone diameters were compared with that achieved by the control plate (Isosensitest alone) for each test organism.

MRSA [3] = assay type: cell-based, Staphylococcus aureus; settings: for MIC of methicillin: glycine 0.02M [0.15%]
Description: Stored frozen plasma was pooled from five subjects.
Human plasma may bind or otherwise inactivate foreign substances and good activity in plasma is indicative of good in vivo activity.

MRSA [4] = assay type: cell-based, Staphylococcus aureus; settings: 2% glycine; only in the presence of glycine

In the case of `NCC(=O)O` [Glycine, glycine], the “strains tested achieving the target MIC of vancomycin of 2 mg/l” value ([1]; 0.2M glycine, Table 5) is reported as 50%, the MIC of vancomycin ([1]; ATCC 29212, glycine 0.02M) is reported as 4 µg/mL and the MIC of vancomycin ([1]; ATCC 29212, glycine 0.2M) is reported as 2 µg/mL. It also gave an MIC of vancomycin ([1]; BBC, glycine 0.02M) of 16 µg/mL, an MIC of vancomycin ([1]; BBC, glycine 0.2M) of 4 µg/mL and an MIC of vancomycin ([1]; E254, glycine 0.02M) of 16 µg/mL. It also gave an MIC of vancomycin ([1]; E254, glycine 0.2M) of 4 µg/mL, an MIC of vancomycin ([1]; E267, glycine 0.02M) of 16 µg/mL and an MIC of vancomycin ([1]; E267, glycine 0.2M) of 4 µg/mL. The MIC of vancomycin ([1]; E271, glycine 0.02M) was 8 µg/mL, the MIC of vancomycin ([1]; E271, glycine 0.2M) was 2 µg/mL and the MIC of vancomycin ([1]; E285, glycine 0.02M) was 16 µg/mL. For the same molecule, the MIC of vancomycin ([1]; E285, glycine 0.2M) was 2 µg/mL, the MIC of vancomycin ([1]; E297, glycine 0.02M) was 8 µg/mL and the MIC of vancomycin ([1]; E297, glycine 0.2M) was 2 µg/mL. For the same molecule, the MIC of vancomycin ([1]; GBC, glycine 0.02M) was 8 µg/mL, the MIC of vancomycin ([1]; GBC, glycine 0.2M) was 4 µg/mL and the MIC of vancomycin ([1]; S226, glycine 0.02M) was 8 µg/mL. It also gave an MIC of vancomycin ([1]; S226, glycine 0.2M) of 4 µg/mL, an MIC of vancomycin ([1]; S227, glycine 0.02M) of 32 µg/mL and an MIC of vancomycin ([1]; S227, glycine 0.2M) of 4 µg/mL. The MIC of vancomycin ([1]; S283, glycine 0.02M) was 8 µg/mL, the MIC of vancomycin ([1]; S283, glycine 0.2M) was 2 µg/mL and the MIC of vancomycin ([1]; S302, glycine 0.02M) was 8 µg/mL. The MIC of vancomycin ([1]; S302, glycine 0.2M) was 4 µg/mL, the MIC of vancomycin ([1]; S315, glycine 0.02M) was 4 µg/mL and the MIC of vancomycin ([1]; S315, glycine 0.2M) was 1 µg/mL. The MIC of vancomycin ([1]; S317, glycine 0.02M) was 32 µg/mL, the MIC of vancomycin ([1]; S317, glycine 0.2M) was 4 µg/mL and the MIC of vancomycin ([1]; S319, glycine 0.02M) was 16 µg/mL. For the same molecule, the MIC of vancomycin ([1]; S319, glycine 0.2M) was 4 µg/mL, the MIC of vancomycin ([1]; S333, glycine 0.02M) was 8 µg/mL and the MIC of vancomycin ([1]; S333, glycine 0.2M) was 2 µg/mL. It also gave an MIC of vancomycin ([1]; S337, glycine 0.02M) of 4 µg/mL, an MIC of vancomycin ([1]; S337, glycine 0.2M) of 2 µg/mL and an MIC of vancomycin ([1]; S393, glycine 0.02M) of 8 µg/mL. For the same molecule, the MIC of vancomycin ([1]; S393, glycine 0.2M) was 2 µg/mL, the MIC of vancomycin ([1]; S497, glycine 0.02M) was 8 µg/mL and the MIC of vancomycin ([1]; S497, glycine 0.2M) was 2 µg/mL. For the same molecule, the MIC of vancomycin ([1]; S556, glycine 0.02M) was 32 µg/mL, the MIC of vancomycin ([1]; S556, glycine 0.2M) was 2 µg/mL and the MIC of vancomycin ([1]; WBC, glycine 0.02M) was 8 µg/mL. The MIC of vancomycin ([1]; WBC, glycine 0.2M) was 4 µg/mL, the “transformation of MRSA (methicillin disc zone diameter versus control plate)” value (MRSA [2]) was “transformed” and the “reduction in activity in human plasma” value (MRSA [3]; 1% human plasma, approximation from Table 3) was “about 75%”. For the same molecule, the MIC of methicillin (MRSA [3]; 5518 (EMRSA-1), +1% human plasma) was 32 µg/mL, the MIC of methicillin (MRSA [3]; 5518 (EMRSA-1), no plasma) was 8 µg/mL and the MIC of methicillin (MRSA [3]; L277, +1% human plasma) was 32 µg/mL. It also gave an MIC of methicillin (MRSA [3]; L277, no plasma) of 8 µg/mL, an MIC of methicillin (MRSA [3]; L278, +1% human plasma) of 256 µg/mL and an MIC of methicillin (MRSA [3]; L278, no plasma) of 64 µg/mL. The MIC of methicillin (MRSA [3]; L279, +1% human plasma) was 256 µg/mL, the MIC of methicillin (MRSA [3]; L279, no plasma) was 64 µg/mL and the MIC of methicillin (MRSA [3]; L280, +1% human plasma) was 64 µg/mL. It also gave an MIC of methicillin (MRSA [3]; L280, no plasma) of 16 µg/mL, an MIC of methicillin (MRSA [3]; L281, +1% human plasma) of 32 µg/mL and an MIC of methicillin (MRSA [3]; L281, no plasma) of 8 µg/mL. The MIC of methicillin (MRSA [3]; L282, +1% human plasma) was 256 µg/mL, the MIC of methicillin (MRSA [3]; L282, no plasma) was 32 µg/mL and the MIC of methicillin (MRSA [3]; L283, +1% human plasma) was 128 µg/mL. The MIC of methicillin (MRSA [3]; L283, no plasma) was 32 µg/mL, the MIC of methicillin (MRSA [3]; L284, +1% human plasma) was 256 µg/mL and the MIC of methicillin (MRSA [3]; L284, no plasma) was 32 µg/mL. For the same molecule, the MIC of methicillin (MRSA [3]; L285, +1% human plasma) was 256 µg/mL, the MIC of methicillin (MRSA [3]; L285, no plasma) was 32 µg/mL and the MIC of methicillin (MRSA [3]; L286, +1% human plasma) was 64 µg/mL. For the same molecule, the MIC of methicillin (MRSA [3]; L286, no plasma) was 32 µg/mL, the MIC of methicillin (MRSA [3]; L287, +1% human plasma) was 128 µg/mL and the MIC of methicillin (MRSA [3]; L287, no plasma) was 32 µg/mL. It also gave an MIC of methicillin (MRSA [3]; L288, +1% human plasma) of 128 µg/mL, an MIC of methicillin (MRSA [3]; L288, no plasma) of 32 µg/mL and an MIC of methicillin (MRSA [3]; L289, +1% human plasma) of 256 µg/mL. For the same molecule, the MIC of methicillin (MRSA [3]; L289, no plasma) was 32 µg/mL, the MIC of methicillin (MRSA [3]; L290, +1% human plasma) was 128 µg/mL and the MIC of methicillin (MRSA [3]; L290, no plasma) was 32 µg/mL. It also gave an MIC of methicillin (MRSA [3]; L291, +1% human plasma) of 64 µg/mL, an MIC of methicillin (MRSA [3]; L291, no plasma) of 32 µg/mL and an MIC of methicillin (MRSA [3]; L292, +1% human plasma) of 256 µg/mL. For the same molecule, the MIC of methicillin (MRSA [3]; L292, no plasma) was 32 µg/mL, the MIC of methicillin (MRSA [3]; L293, +1% human plasma) was 128 µg/mL and the MIC of methicillin (MRSA [3]; L293, no plasma) was 32 µg/mL. The MIC of methicillin (MRSA [3]; L294, +1% human plasma) was 128 µg/mL, the MIC of methicillin (MRSA [3]; L294, no plasma) was 16 µg/mL and the “transformation of MRSA into methicillin-sensitive strains” value (MRSA [4]) was “transformed all MRSA into methicillin-sensitive strains”.
